Reference: patent US12091411B2, “IRAK degraders and uses thereof” (Kymera Therapeutics, Inc., priority 2022, dated 2024)
Where two headings read alike, the source gives them in different places.

Molecular target: T1, IRAK4 (Homo sapiens, UniProt Q9NWZ3)
T1 construct: Degradation of IRAK4 in OCI-LY10 was quantitatively measured using Meso Scale Discovery technology; endogenous in cells; host or cells: OCI-LY10
T1 sequence (Q9NWZ3 1-460): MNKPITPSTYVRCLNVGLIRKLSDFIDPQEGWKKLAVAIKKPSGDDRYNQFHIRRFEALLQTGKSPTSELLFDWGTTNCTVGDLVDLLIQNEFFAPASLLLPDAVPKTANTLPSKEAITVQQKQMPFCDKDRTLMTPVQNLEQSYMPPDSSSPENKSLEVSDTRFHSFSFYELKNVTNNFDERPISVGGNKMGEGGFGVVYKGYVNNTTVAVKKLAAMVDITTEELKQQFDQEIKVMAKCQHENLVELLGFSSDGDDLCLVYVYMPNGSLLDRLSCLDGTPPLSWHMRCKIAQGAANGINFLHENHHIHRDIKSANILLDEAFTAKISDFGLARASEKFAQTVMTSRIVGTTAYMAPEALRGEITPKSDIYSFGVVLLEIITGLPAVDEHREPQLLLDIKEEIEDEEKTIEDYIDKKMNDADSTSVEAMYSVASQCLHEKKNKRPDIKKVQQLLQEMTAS
Assay: IRAK4 MSD Degradation in OCI-LY10
Format: cell-based
Details: OCI-LY10 cells, MSD
Summary of the method: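 DC50, from a three-parameter logistic fit and reported as letter bins A (<0.01 μM), B, C, D (>0.2 μM or not tested), reflects IRAK4 loss measured by MSD electrochemiluminescence in OCI-LY10 lysates. Treatment: 8 doses, 1:3 steps, top 1 to 10 μM, 4 to 24 h, 37 °C.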

[1] = 4 hrs incubation, read-out: IRAK4 degradation in OCI-LY10 at 4 hrs: DC50
[2] = 24 hrs incubation, read-out: IRAK4 degradation in OCI-LY10 at 24 hrs: DC50

Structure (SMILES)	DC50 [1] [nM]	DC50 [2] [nM]
Cn1c(=O)n(C2CCC(=O)NC2=O)c2cccc(N3CCN([C@H]4CC[C@@H](n5cc(NC(=O)c6cnn7ccc(N8C[C@H]9C[C@@H]8CO9)nc67)c(C(F)F)n5)CC4)CC3)c21 (some centres unmarked) [I-424]	> 200	> 200
Cn1c(=O)n(C2CCC(=O)NC2=O)c2cccc(C#CCN3CCN(C[C@H]4CC[C@H](n5cc(NC(=O)c6cnn7ccc(C8CCOC8)nc67)c(C(F)F)n5)CC4)CC3)c21 (some centres unmarked) [I-426]	10 to 100	> 200
C[C@H]1CN(c2ccn3ncc(C(=O)Nc4cn([C@H]5CC[C@H](CN(C)C6CCN(c7cccc8c7n(C)c(=O)n8C7CCC(=O)NC7=O)CC6)CC5)nc4C(F)F)c3n2)CCO1 (some centres unmarked) [I-427]	> 200	< 10
C[C@@H]1CN(c2ccn3ncc(C(=O)Nc4cn([C@H]5CC[C@H](CN(C)C6CCN(c7cccc8c7n(C)c(=O)n8C7CCC(=O)NC7=O)CC6)CC5)nc4C(F)F)c3n2)CCO1 (some centres unmarked) [I-428]	> 200	< 10
C[C@@H]1CN(c2ccn3ncc(C(=O)Nc4cn([C@H]5CC[C@H](CN6CCN(CC#Cc7cccc8c7n(C)c(=O)n8C7CCC(=O)NC7=O)CC6)CC5)nc4C(F)F)c3n2)C[C@H](C)O1 (some centres unmarked) [I-429]	> 200	> 200
C[C@H]1CN(c2ccn3ncc(C(=O)Nc4cn([C@H]5CC[C@H](CN6CCN(CC#Cc7cccc8c7n(C)c(=O)n8C7CCC(=O)NC7=O)CC6)CC5)nc4C(F)F)c3n2)C[C@H](C)O1 (some centres unmarked) [I-430]	> 200	< 10
C[C@@H]1CN(c2ccn3ncc(C(=O)Nc4cn([C@H]5CC[C@H](CN6CCN(CC#Cc7cccc8c7n(C)c(=O)n8C7CCC(=O)NC7=O)CC6)CC5)nc4C(F)F)c3n2)C[C@@H](C)O1 (some centres unmarked) [I-431]	> 200	< 10
[2H]C([2H])([2H])Oc1ccc2c(c1C1CCN(C[C@H]3CC[C@H](n4cc5cc(NC(=O)c6cccc(C(F)(F)F)n6)ncc5n4)CC3)CC1)n(C([2H])([2H])[2H])c(=O)n2C1CCC(=O)NC1=O (some centres unmarked) [I-432]	> 200	< 10
Cn1c(=O)n(C2CCC(=O)NC2=O)c2cccc(C#CCOC3CCN(C[C@H]4CC[C@H](n5cc(NC(=O)c6cnn7ccc(N8CCC(F)(F)CC8)nc67)c(C(F)F)n5)CC4)CC3)c21 (some centres unmarked) [I-433]	> 200	< 10
Cn1c(=O)n(C2CCC(=O)NC2=O)c2cccc(C#CCN3CCN(C[C@H]4CC[C@H](n5cc(NC(=O)c6cnn7ccc(N8CCC(F)(F)CC8)nc67)c(C(F)F)n5)CC4)CC3)c21 (some centres unmarked) [I-434]	> 200	< 10
O=C1CCN(c2cccc(C#CCN3CCN(C[C@H]4CC[C@@H](n5cc(NC(=O)c6cnn7ccc(N8CC9CCC(C8)O9)nc67)c(C(F)F)n5)CC4)CC3)c2)C(=O)N1 [I-435]	> 200	> 200
O=C1CCN(c2cccc(C#CCN3CCN(C[C@H]4CC[C@@H](n5cc(NC(=O)c6cnn7ccc(N8CC9CC(C8)O9)nc67)c(C(F)F)n5)CC4)CC3)c2)C(=O)N1 [I-436]	> 200	> 200
O=C1CCC(c2ccc(C#CCN3CCN(C[C@H]4CC[C@H](n5cc(NC(=O)c6cnn7ccc(N8C[C@H]9C[C@@H]8CO9)nc67)c(C(F)F)n5)CC4)CC3)cc2)C(=O)N1 (some centres unmarked) [I-437]	10 to 100	> 200
COc1cc2nn([C@H]3CC[C@H](CN4CCC(c5cccc6c5n(C)c(=O)n6C5CCC(=O)NC5=O)CC4)CC3)cc2cc1NC(=O)c1cncc(F)c1 (some centres unmarked) [I-439]	< 10	> 200
C[C@@H]1CN(c2ccn3ncc(C(=O)Nc4cn([C@H]5CC[C@H](CN(C)C6CCN(c7cccc8c7n(C)c(=O)n8C7CCC(=O)NC7=O)CC6)CC5)nc4C(F)F)c3n2)C[C@@H](C)O1 (some centres unmarked) [I-440]	< 10	< 10
C[C@H]1CN(c2ccn3ncc(C(=O)Nc4cn([C@H]5CC[C@H](CN(C)C6CCN(c7cccc8c7n(C)c(=O)n8C7CCC(=O)NC7=O)CC6)CC5)nc4C(F)F)c3n2)C[C@H](C)O1 (some centres unmarked) [I-441]	< 10	< 10

Structure (SMILES)	DC50 [1] [nM]	DC50 [2] [nM]
C[C@@H]1CN(c2ccn3ncc(C(=O)Nc4cn([C@H]5CC[C@H](CN(C)C6CCN(c7cccc8c7n(C)c(=O)n8C7CCC(=O)NC7=O)CC6)CC5)nc4C(F)F)c3n2)C[C@H](C)O1 (some centres unmarked) [I-442]	10 to 100	< 10
Cn1c(=O)n(C2CCC(=O)NC2=O)c2cccc(C3CCN(C[C@H]4CC[C@H](n5cc6cc(NC(=O)c7cccc(C(F)(F)F)n7)c(C(F)F)cc6n5)CC4)CC3(F)F)c21 (some centres unmarked) [I-443]	> 200	> 200
Cn1c(=O)n(C2CCC(=O)NC2=O)c2cccc(C3CCN(C[C@H]4CC[C@H](n5cc6cc(NC(=O)c7cccc(C(F)(F)F)n7)c(C#N)cc6n5)CC4)CC3(F)F)c21 (some centres unmarked) [I-444]	> 200	> 200
Cn1c(=O)n(C2CCC(=O)NC2=O)c2cccc(C3CCN(C[C@H]4CC[C@H](n5cc6cc(NC(=O)c7cccc(C(F)(F)F)n7)ccc6n5)CC4)CC3(F)F)c21 (some centres unmarked) [I-445]	> 200	> 200
COc1ccc2c(c1C1CCN(C[C@H]3CC[C@H](n4cc5cc(NC(=O)c6cccc(C(F)(F)F)n6)ccc5n4)CC3)CC1(F)F)n(C)c(=O)n2C1CCC(=O)NC1=O (some centres unmarked) [I-446]	> 200	> 200
Cn1c(=O)n(C2CCC(=O)NC2=O)c2cccc(C3CCN(C[C@H]4CC[C@H](n5cc6cc(NC(=O)c7cccc(C(F)(F)F)n7)ncc6n5)CC4)CC3(F)F)c21 (some centres unmarked) [I-447]	> 200	< 10
COc1ccc2c(c1C1CCN(C[C@H]3CC[C@H](n4cc5cc(NC(=O)c6cccc(C(F)(F)F)n6)ncc5n4)CC3)CC1(F)F)n(C)c(=O)n2C1CCC(=O)NC1=O (some centres unmarked) [I-448]	> 200	> 200
Cn1c(=O)n(C2CCC(=O)NC2=O)c2cccc(C3CCN(C[C@H]4CC[C@H](n5cc6cc(NC(=O)c7cccc(C(F)(F)F)n7)c(F)cc6n5)CC4)CC3(F)F)c21 (some centres unmarked) [I-449]	> 200	> 200
Cn1c(=O)n(C2CCC(=O)NC2=O)c2cccc(C3CCN(C[C@H]4CC[C@H](n5cc6cc(NC(=O)c7cccc(C(F)(F)F)n7)c(Cl)cc6n5)CC4)CC3(F)F)c21 (some centres unmarked) [I-450]	> 200	> 200
COc1cc2nn([C@H]3CC[C@H](CN4CCC(c5cccc6c5n(C)c(=O)n6C5CCC(=O)NC5=O)C(F)(F)C4)CC3)cc2cc1NC(=O)c1cccc(C(F)(F)F)n1 (some centres unmarked) [I-451]	> 200	> 200
Cc1cc2nn([C@H]3CC[C@H](CN4CCC(c5cccc6c5n(C)c(=O)n6C5CCC(=O)NC5=O)C(F)(F)C4)CC3)cc2cc1NC(=O)c1cccc(C(F)(F)F)n1 (some centres unmarked) [I-452]	> 200	> 200
COc1ccc2c(c1N1CCC(N(C)C[C@H]3CC[C@H](n4cc(NC(=O)c5cnn6cccnc56)c(C(F)F)n4)CC3)C(F)(F)C1)n(C)c(=O)n2C1CCC(=O)NC1=O (some centres unmarked) [I-453]	> 200	> 200
Cn1c(=O)n(C2CCC(=O)NC2=O)c2cccc(C3=CCN(C[C@H]4CC[C@H](n5cc6cc(NC(=O)c7cccc(C(F)(F)F)n7)ccc6n5)CC4)CC3(F)F)c21 (some centres unmarked) [I-454]	> 200	> 200
Cn1c(=O)n(C2CCC(=O)NC2=O)c2cccc(C3=CCN(C[C@H]4CC[C@H](n5cc6cc(NC(=O)c7cccc(C(F)(F)F)n7)c(C#N)cc6n5)CC4)CC3(F)F)c21 (some centres unmarked) [I-455]	> 200	> 200
Cn1c(=O)n(C2CCC(=O)NC2=O)c2cccc(C3=CCN(C[C@H]4CC[C@H](n5cc6cc(NC(=O)c7cccc(C(F)(F)F)n7)c(C(F)F)cc6n5)CC4)CC3(F)F)c21 (some centres unmarked) [I-456]	> 200	> 200
